Test results: patent publication US8178530B2, “Imidazolopyrazine compounds useful for the treatment of degenerative and inflammatory diseases” (Janssen Pharmaceutica NV, priority 2006, dated 2012)

What was measured:
[1] = system: MMP1 expression by SFs; assay: 'MMP assay': MMP1 expression by 'complex trigger' activated synovial fibroblasts (MMP1 ELISA); assay type: cell-based, human; conditions: Homo sapiens, Fibroblast, RASFs, 48 hrs
Method: A 384-well format ELISA for measurement of MMP1 is developed. Various primary antibodies are tested, as well as various ELISA protocols. The following protocol is developed and validated to measure MMP1 levels in SF supernatant in 384 well plates: white Lumitrac 600 384 well plates (Greiner) are coated with 2 μg/mL anti-MMP1 antibody MAB1346 (Chemicon). The antibody is diluted in buffer 40 (1.21 g Tris base (Sigma), 0.58 g NaCl (Calbiochem) and 5 ml 10% NaN3 (Sigma) in 1 L milliQ water and adjusted to pH 8.5). After overnight incubation at 4° C., plates are washed with PBS (80 g NaCl, 2 g KCl (Sigma), 11.5 g Na2HPO4.7H2O and 2 g KH2PO4 in 10 L milliQ; pH 7.4) and blocked with 100 μL/well Casein buffer (2% Casein (VWR International) in PBS). Next day, casein buffer is removed from ELISA plates and replaced by 50 μL/well EC buffer (4 g casein, 2.13 g Na2HPO4 (Sigma), 2 g bovine albumin (Sigma), 0.69 g NaH2PO4.H2O (Sigma), 0.5 g CHAPS (Roche), 23.3 g NaCl, 4 mL 0.5 M EDTA pH 8 (Invitrogen), 5 mL 10% NaN3 in 1 L milliQ and adjusted to pH 7.0). 0.25 mM DTT (Sigma) is added to the thawed samples plates. After removal of the EC buffer, 20 μL of sample is transferred to the ELISA plates. After overnight incubation at 4° C. plates are washed twice with PBS and once with PBST (PBS with 0.05% Tween-20 (Sigma)) and incubated with 35 μL/well biotinylated anti-MMP1 antibody solution (R&D). This secondary antibody is diluted in buffer C (0.82 g NaH2PO4.H2O, 4.82 g Na2HPO4, 46.6 g NaCl, 20 g bovine albumin and 4 mL 0.5M EDTA pH 8 in 2 L milliQ and adjusted to pH 7.0) at a concentration of 5 μg/mL. After 2 h of incubation at RT, plates are washed as described above and incubated with 50 μL/well streptavidin-HRP conjugate (Biosource). Streptavidin-HRP conjugate is diluted in buffer C at a concentration of 0.25 μg/mL. After 45 min, plates are washed as described above and incubated for 5 min with 50 μL/well BM Chem ELISA Substrate (Roche). Readout is performed on the Luminoscan Ascent Luminometer (Labsystems) with an integration time of 200 msec or with an Envision reader (Perkin Elmer).
The increase of MMP1 expression by SFs upon treatment with cytokines relevant in the field of RA (TNF-α, IL1β and OSM) or a combination thereof is shown in FIG. 2 as white bars. For this experiment, SFs are seeded in 96 well plates, 3,000 cells/well. 24 h later, the medium is changed to M199 medium supplemented with 1% FBS. One day after the medium change, cytokines or combinations thereof are added to the cultures, each cytokine being added to a final concentration of 25 ng/mL. 72 h after cytokine addition, the supernatant is collected and processed in the MMP1 ELISA as described in the protocol given above. In parallel with this experiment, SFs are triggered, using the same protocol, with the supernatant of THP1 cells (2-fold diluted in M199+1% FBS) treated with the same cytokines or combinations of cytokines for 48 h in M199 medium+1% FBS. The induction of the MMP1 expression by SFs triggered with the supernatants of TNF-α-treated THP1 cells is stronger (>4.5 fold induction) as compared to the SFs triggered with recombinant TNF-α alone (3-fold induction) and almost equals the 5-fold induction obtained by a mixture of 3 purified cytokines (TNF-α, IL1βb, OSM). […] As the role of TNF-α in the RA pathogenesis is validated (TNF-α-blockers such as Infliximab and Etanercept show some efficacy in the treatment of RA patients) and the THP-1 cells are representative for monocytes/macrophages present in the joint of RA patients, the TNF-α-based trigger mixture prepared by contacting THP-1 cells with TNF-α will contain factors present in the joints of RA patients and subsequently is relevant to RA. This TNF-α-based complex trigger, further referred to as the ‘complex trigger’, will further be used as basis for the ‘MMP assay’.
Dexamethasone is shown to dose-dependently reduce amounts of MMP1 produced by complex trigger activated SFs. […]

[2] = target: T1, MAPKAPK5 (Homo sapiens, UniProt Q8IW41); assay: MAPKAP-K5 assay (FlashPlate, 33P-ATP); assay type: biochemical; conditions: 0.6 μM ATP, 30 minutes at room temperature
T1 construct: 1 mU MAPKAP-K5
T1 sequence (Q8IW41 1-473): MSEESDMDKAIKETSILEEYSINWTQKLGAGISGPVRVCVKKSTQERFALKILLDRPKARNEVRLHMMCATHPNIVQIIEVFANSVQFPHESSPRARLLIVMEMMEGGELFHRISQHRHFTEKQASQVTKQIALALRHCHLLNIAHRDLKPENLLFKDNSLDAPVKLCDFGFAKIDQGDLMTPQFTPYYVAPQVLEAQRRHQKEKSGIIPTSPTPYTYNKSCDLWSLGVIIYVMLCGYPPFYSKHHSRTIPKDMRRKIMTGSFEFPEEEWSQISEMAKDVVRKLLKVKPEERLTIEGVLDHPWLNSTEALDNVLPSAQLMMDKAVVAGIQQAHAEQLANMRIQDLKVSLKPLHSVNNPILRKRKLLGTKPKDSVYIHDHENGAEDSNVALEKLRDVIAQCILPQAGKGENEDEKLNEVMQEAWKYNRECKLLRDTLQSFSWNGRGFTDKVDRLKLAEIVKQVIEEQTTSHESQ
Method: 3 μM MAPKAP-K5 peptide substrate

Structure (SMILES) | IC50 [2] [µM] | EC50 [1] [µM]
NC(=O)c1ccc(-c2cnc(Nc3ccc(C(=O)NCCO)cc3)c3nccn23)cc1 [Compound 49] | > 1 | > 1
CCN(CC)CCNC(=O)c1cccc(Nc2ncc(-c3cn[nH]c3)n3ccnc23)c1 [Compound 50] | > 1 | > 1
O=C(O)c1cccc(Nc2ncc(-c3cn[nH]c3)n3ccnc23)c1 [Compound 51] | > 1 | > 1
NC(=O)c1ccc(Nc2ncc(-c3ccc(C(=O)O)cc3)n3ccnc23)cc1 [Compound 52] | > 1 | > 1
CCN(CC)CCNC(=O)c1ccc(Nc2ncc(-c3cn[nH]c3)n3ccnc23)c(C)c1 [Compound 58] | > 1 | > 1
CCN(CC)CCNC(=O)c1ccc(Nc2ncc(-c3cn[nH]c3)n3cc(C)nc23)cc1 [Compound 59] | > 1 | > 1
CCN(CC)CCNC(=O)c1ccc(Nc2ncc(-c3ccc(-c4nn[nH]n4)cc3)n3ccnc23)cc1 [Compound 60] | > 1 | > 1
O=C(NCCO)c1ccc(Nc2ncc(-c3cn[nH]c3)n3ccnc23)cc1 [Compound 61] | 0.501 to 1 | > 1
c1cn2c(-c3nn[nH]n3)cnc(Nc3ccc(N4CCOCC4)cc3)c2n1 [Compound 62] | > 1 | > 1
O=C(O)c1cnc(Nc2ccc(N3CCOCC3)cc2)c2nccn12 [Compound 63] | > 1 | > 1
CCN(CC)CCNC(=O)c1ccc(Nc2ncc(-c3ccc(O)c(OC)c3)n3ccnc23)cc1 [Compound 65] | > 1 | > 1
CCN(CC)CCNC(=O)c1ccc(Nc2ncc(-c3cccnc3)n3ccnc23)cc1 [Compound 72] | > 1 | > 1
CCN(CC)CCNC(=O)c1ccc(Nc2ncc(-c3ccsc3)n3ccnc23)cc1 [Compound 73] | > 1 | > 1
CCN(CC)CCNC(=O)c1ccc(Nc2ncc(-c3ccoc3)n3ccnc23)cc1 [Compound 74] | > 1 | > 1
CCN(CC)CCNC(=O)c1ccc(Nc2ncc(-c3ccc(O)cc3C(F)(F)F)n3ccnc23)cc1 [Compound 75] | > 1 | > 1
CCN(CC)CCNC(=O)c1ccc(Nc2ncc(-c3ccc(CC(=O)O)cc3)n3ccnc23)cc1 [Compound 76] | > 1 | > 1
CCN(CC)CCNC(=O)c1ccc(Nc2ncc(-c3cccs3)n3ccnc23)cc1 [Compound 78] | > 1 | > 1
CCN(CC)CCNC(=O)c1ccc(Nc2ncc(-c3ccncc3)n3ccnc23)cc1 [Compound 86] | > 1 | > 1
NCc1cccc(CNC(=O)c2ccc(Nc3ncc(-c4cn[nH]c4)n4ccnc34)cc2)c1 [Compound 95] | > 1 | 0.101 to 0.5
NC(=O)c1ccc(-c2cnc(Nc3cccnc3)c3nccn23)cc1 [Compound 96] | > 1 | > 1
CS(=O)(=O)c1ccc(Nc2ncc(-c3ccc(C(N)=O)cc3)n3ccnc23)cc1 [Compound 97, 4-[8-(4-Methanesulfonyl-phenylamino)-imidazo[1,2-a]pyrazin-5-yl]-benzamide] | > 1 | > 1
CCN(CC)CCNC(=O)c1ccc(Nc2ncc(-c3cc[nH]c(=O)c3)n3ccnc23)cc1 [Compound 99] | 0.101 to 0.5 | > 1
Cc1nc(-c2cnc(Nc3ccc(N4CCOCC4)cc3)c3nccn23)n[nH]1 [Compound 100] | > 1 | > 1
CCN(CC)CCNC(=O)c1ccc(Nc2ncc(C#N)n3ccnc23)cc1 [Compound 101] | > 1 | > 1
CCN(CC)CCNC(=O)c1ccc(Nc2ncc(-c3cn[nH]c3)n3ccnc23)cn1 [Compound 103, 5-[5-(1H-Pyrazol-4-yl)-imidazo[1,2-a]pyrazin-8-ylamino]-pyridine-2-carboxylic acid (2-diethylamino-ethyl)-amide] | 0.501 to 1 | > 1

Continued, in another order:

IC50 [2] [µM] | Structure (SMILES) | EC50 [1] [µM]
> 1 | O=C(O)c1ccc(-c2cnc(Nc3ccc(C(=O)NCCN4CCOCC4)cc3)c3nccn23)cc1 [Compound 54] | > 1
0.101 to 0.5 | CN1CCN(C(=O)c2ccc(Nc3ncc(-c4cn[nH]c4)n4ccnc34)cc2)CC1 [Compound 57] | > 1
> 1 | NC(=O)c1cnc(Nc2ccc(N3CCOCC3)cc2)c2nccn12 [Compound 66] | > 1
> 1 | c1cn2c(-c3cn[nH]n3)cnc(Nc3ccc(N4CCOCC4)cc3)c2n1 [Compound 67] | > 1
> 1 | CCN(CC)CCNC(=O)c1ccc(Nc2ncc(-c3nn[nH]n3)n3ccnc23)cc1 [Compound 68] | > 1
> 1 | CN1CCN(S(=O)(=O)c2ccc(Nc3ncc(-c4cn[nH]c4)n4ccnc34)cc2)CC1 [Compound 70] | > 1
> 1 | CCN(CC)CCNC(=O)c1ccc(Nc2ncc(-c3cncc4ccccc34)n3ccnc23)cc1 [Compound 77] | > 1
> 1 | CCN(CC)CCNC(=O)c1ccc(Nc2ncc(-c3ccc(S(C)(=O)=O)cc3)n3ccnc23)cc1 [Compound 79] | > 1
> 1 | CCN(CC)CCNC(=O)c1ccc(Nc2ncc(-c3cnc(O)nc3O)n3ccnc23)cc1 [Compound 80] | > 1
> 1 | CCN(CC)CCNC(=O)c1ccc(Nc2ncc(-c3c(C)n[nH]c3C)n3ccnc23)cc1 [Compound 81] | > 1
0.501 to 1 | CCN(CC)CCNC(=O)c1ccc(Nc2ncc(-c3cn[nH]n3)n3ccnc23)cc1 [Compound 84] | > 1
> 1 | CCN(CC)CCNC(=O)c1ccc(Nc2ncc(-c3cncnc3)n3ccnc23)cc1 [Compound 87] | > 1
> 1 | CCN(CC)CCNC(=O)c1ccc(Nc2ncc(-c3ccnn3C)n3ccnc23)cc1 [Compound 88] | > 1
> 1 | c1cn2c(-c3nc[nH]n3)cnc(Nc3ccc(N4CCOCC4)cc3)c2n1 [Compound 91] | > 1
> 1 | Cc1cn2c(-c3cn[nH]c3)cnc(Nc3ccc(C(N)=O)cc3)c2n1 [Compound 92] | > 1
0.501 to 1 | O=C(NCCc1c[nH]c2ccccc12)c1ccc(Nc2ncc(-c3cn[nH]c3)n3ccnc23)cc1 [Compound 94] | > 1
